Results as given in patent publication US20110207697A1, “XANTHOHUMOL COMPOSITIONS AND METHODS FOR TREATING SKIN DISEASES OR DISORDERS” (Betal, LLC, priority 2008, published 2011).

What was measured:
[1] = ORAC-Total (ORAClipo + ORAChydro); conditions: ORAClipo + ORAChydro
Source text: An ORAC method for lipophilic antioxidants was further developed and validated using fluorescein as the fluorescent probe (Prior et al. 2003 J. Agric. Food Chem. 51: 3273-3279). This method has the advantage that similar assay conditions and standards can be used for both hydrophilic and lipophilic antioxidant components, such that the two values can be added together to obtain a total antioxidant capacity. In the present work, the ORAC value is expressed as the sum of values of both the water-soluble and fat-soluble parts. Green tea catechins (Polyphenon 60) were used as the control with the highest ORAC value among edible plants. Vitamin C and vitamin E were used as controls for water- and fat-soluble molecules, respectively. […] The SOAC scores are not included in this figure; ORAC values used are the sum of lipophilic and hydrophilic results. For each assay category, scaling was made logarithmic so that the plot on the chart resembles the associated rating. […] The larger the spatial area, the higher the overall antioxidative capacity. […] Both hydrophilic and lipophilic oxygen radical absorbance capacity (ORAC) assays were carried out at Brunswick Laboratory (Wareham, Mass.) based on the modified ORACfl method reported by Ou et al. (2001 J. Agric. Food Chem. 49: 4619-4626, 2002 J. Agr. Food Chem. 50: 3122-3128). Trolox, a water-soluble vitamin E analog, was used as the calibration standard. The data are expressed as mmole of Trolox equivalents per gram (mmol TE/g). The acceptable precision of the ORAC assay is a 15% relative standard deviation. Caffeic acid was used as the calibration standard. Hydroxyl radical ORAC (HOR-AC) is expressed as mmole caffeic acid equivalent per gram (mmol CAE/g). Trolox was used as the calibration standard. The peroxyl nitrite ORAC (NORAC) result is expressed as mmol TE/g. Alpha-tocopherol (vitamin E) was used as the calibration standard, and the singlet oxygen absorbance capacity (SOAC) result is expressed as mmole a-tocopherol equivalent (mmol VtE) per gram (Aubry et al. 1989). The abbreviation for the 1,1-diphenyl-2-picrylhydrazyl radical is DPPH. Radical-scavenging activity was measured by the change in absorbance at 517 nm with the DPPH result expressed as mmol TE/g. Similarly, FRAP is an abbreviation for the ferric reducing antioxidative power method, which utilizes chemical conversion of the yellow Fe 3+-2,4,6-tripyridyl s-triazine (TPTZ) complex to the blue Fe 2+-TPTZ complex by electron donation under acidic conditions (Okada and Okada 1998 J. Agric. Food Chem. 46: 401-406). The FRAP result is expressed as mmol TE/g (Ou et al. 2002b). Superoxide dismutase (SOD) was used as a calibration standard; the SOD result is expressed as kilo unit SOD equivalent (kunitSODeq) per gram.

[2] = Singlet oxygen absorbance capacity (SOAC); conditions: expressed as mmol VtE/g
Source text: [table] Alpha-tocopherol (vitamin E) was used as the calibration standard, and the SOAC result is expressed as mmol VtE/g. The higher the SOAC score, the higher the singlet oxygen-quenching capacity. […] Singlet oxygen has been postulated to be a highly reactive and toxic intermediate against skin. It is known that the acne-causing bacterium P. acnes naturally produces high amounts of intracellular porphyrins, mostly coproporphyrin (Ashkenazi et al. 2003). Singlet oxygen can be generated on the skin surface from P. acnes porphyrins under sunlight and induce serious skin damage ([…] et al. 1996 Biochem. Biophys. Res. Commun. 223: 578-582). Various skin disorders progress through a singlet oxygen-dependent mechanism, including acne, atopic dermatitis, and skin aging. Both hydrophilic and lipophilic oxygen radical absorbance capacity (ORAC) assays were carried out at Brunswick Laboratory (Wareham, Mass.) based on the modified ORACfl method reported by Ou et al. (2001 J. Agric. Food Chem. 49: 4619-4626, 2002 J. Agr. Food Chem. 50: 3122-3128). Trolox, a water-soluble vitamin E analog, was used as the calibration standard. The data are expressed as mmole of Trolox equivalents per gram (mmol TE/g). The acceptable precision of the ORAC assay is a 15% relative standard deviation. Caffeic acid was used as the calibration standard. Hydroxyl radical ORAC (HOR-AC) is expressed as mmole caffeic acid equivalent per gram (mmol CAE/g). Trolox was used as the calibration standard. The peroxyl nitrite ORAC (NORAC) result is expressed as mmol TE/g. Alpha-tocopherol (vitamin E) was used as the calibration standard, and the singlet oxygen absorbance capacity (SOAC) result is expressed as mmole a-tocopherol equivalent (mmol VtE) per gram (Aubry et al. 1989). […] Radical-scavenging activity was measured by the change in absorbance at 517 nm with the DPPH result expressed as mmol TE/g. […] The FRAP result is expressed as mmol TE/g (Ou et al. 2002b). Superoxide dismutase (SOD) was used as a calibration standard; the SOD result is expressed as kilo unit SOD equivalent (kunitSODeq) per gram.

[3] = Lipophilic oxygen radical absorbance capacity (ORAC-L); conditions: lipid soluble antioxidant capacity; expressed as mmol TE/g; — = No activity detected
Source text: Thus the ORAC method has become a widely used method for assessing antioxidant capacity in biological samples and foods. However, because of its inability to measure both hydrophilic and lipophilic antioxidants, the method has its limitations. An ORAC method for lipophilic antioxidants was further developed and validated using fluorescein as the fluorescent probe (Prior et al. 2003 J. Agric. Food Chem. 51: 3273-3279). […] In the present work, the ORAC value is expressed as the sum of values of both the water-soluble and fat-soluble parts. […] Both hydrophilic and lipophilic oxygen radical absorbance capacity (ORAC) assays were carried out at Brunswick Laboratory (Wareham, Mass.) based on the modified ORACfl method reported by Ou et al. (2001 J. Agric. Food Chem. 49: 4619-4626, 2002 J. Agr. Food Chem. 50: 3122-3128). Trolox, a water-soluble vitamin E analog, was used as the calibration standard. The data are expressed as mmole of Trolox equivalents per gram (mmol TE/g). […] Hydroxyl radical ORAC (HOR-AC) is expressed as mmole caffeic acid equivalent per gram (mmol CAE/g). […] The peroxyl nitrite ORAC (NORAC) result is expressed as mmol TE/g. […] Radical-scavenging activity was measured by the change in absorbance at 517 nm with the DPPH result expressed as mmol TE/g. […] The FRAP result is expressed as mmol TE/g (Ou et al. 2002b).

| Compound | ORAC-Total (Trolox equivalent) [1] | SOAC (Vitamin E equivalent) [2] | ORAC-L (Trolox equivalent) [3] |
| --- | --- | --- | --- |
| O=C1O[C@H]([C@@H](O)CO)C(O)=C1O [Vitamin C, reference compound] | 1.4 Trolox equivalent |  |  |
| Cc1c(C)c2c(c(C)c1O)CC[C@@](C)(CCC[C@H](C)CCC[C@H](C)CCCC(C)C)O2 [Vitamin E, Alpha-tocopherol, reference compound] | 0.75 Trolox equivalent | 1.0 Vitamin E equivalent | 0.75 Trolox equivalent |
